In patent US7420001B2 (Wyeth, priority 2003, dated 2008):
Read-outs that look alike come from different tables or passages of the source.

What was measured:
MMP-2 = molecular target: T1, MMP-2 (Homo sapiens, UniProt P08253); assay: In-vitro fluorescence assay of MMP-2 activity; format: biochemical; settings: recombinant human MMP-2; read-out: MMP-2 IC50
T1 construct: purchased Oncogene Research Products (Calbiochem) PF023
T1 sequence (P08253 110-660): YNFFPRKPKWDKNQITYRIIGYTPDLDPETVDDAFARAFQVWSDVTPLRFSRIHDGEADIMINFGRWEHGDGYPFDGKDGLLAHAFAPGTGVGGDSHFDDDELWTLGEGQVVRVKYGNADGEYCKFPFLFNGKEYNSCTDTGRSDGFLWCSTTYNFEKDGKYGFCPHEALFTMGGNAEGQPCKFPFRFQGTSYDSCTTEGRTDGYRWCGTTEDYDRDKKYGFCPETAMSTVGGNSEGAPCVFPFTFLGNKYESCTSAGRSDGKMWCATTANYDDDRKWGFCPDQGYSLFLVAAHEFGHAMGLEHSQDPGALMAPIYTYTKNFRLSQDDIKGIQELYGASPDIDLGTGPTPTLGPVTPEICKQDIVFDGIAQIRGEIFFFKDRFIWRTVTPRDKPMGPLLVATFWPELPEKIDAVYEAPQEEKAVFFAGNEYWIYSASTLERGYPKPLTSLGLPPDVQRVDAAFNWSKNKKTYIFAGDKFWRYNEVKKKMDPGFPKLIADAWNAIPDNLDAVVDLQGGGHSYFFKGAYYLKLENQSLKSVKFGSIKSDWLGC

MMP-13 = molecular target: T2, MMP-13 (Homo sapiens, UniProt P45452); assay: In-vitro fluorescence assay of MMP-13 activity; format: biochemical
T2 construct: made in house

[1] = recombinant human catalytic domain of MMP-13, read-out: MMP-13 IC50

| Structure (SMILES) | IC50 (MMP-13; MMP-13 IC50, recombinant human catalytic domain of MMP-13) [nM] | IC50 (MMP-13; [1]) [nM] | IC50 (MMP-2) [nM] |
| --- | --- | --- | --- |
| CC(C)C(NS(=O)(=O)c1ccc(-c2ccc(NC(=O)c3cc4cc(NS(C)(=O)=O)ccc4o3)cc2)cc1)C(=O)O (stereo in doubt) [Example 8, N-({4′-[({5-[(methylsulfonyl)amino]-1-benzofuran-2-yl}carbonyl)amino]-1,1′-biphenyl-4-yl}sulfonyl)-L-valine] | 0.4 | – | 3.9 |
| COc1c(Br)ccc2oc(C(=O)Nc3ccc(-c4ccc(S(=O)(=O)NC(C(=O)O)C(C)C)cc4)cc3)c(C)c12 (stereo in doubt) [Example 119, (R)-2-{4′-[(5-Bromo-4-methoxy-3-methyl-benzofuran-2-carbonyl)-amino]-biphenyl-4-sulfonylamino}-3-methyl-butyric acid] | – | 3.4 | 688 |
| COc1cccc2cc(C(=O)Nc3ccc(-c4ccc(S(=O)(=O)N[C@H](C(=O)O)C(C)C)cc4)cc3)oc12 [Example 5, N-[(4′-{[(7-methoxy-1-benzofuran-2-yl)carbonyl]amino}-1,1′-biphenyl-4-yl)sulfonyl]-L-valine] | – | 10.4 | – |
| CC(C)[C@H](NS(=O)(=O)c1ccc(-c2ccc(NC(=O)c3cc4cc([N+](=O)[O-])ccc4o3)cc2)cc1)C(=O)O [Example 6, N-[(4′-{[(5-nitro-1-benzofuran-2-yl)carbonyl]amino}-1,1′-biphenyl-4-yl)sulfonyl]-L-valine] | – | 0.7 | 3.3 |
| CC(C)[C@H](NS(=O)(=O)c1ccc(-c2ccc(NC(=O)c3cc4cc(NS(=O)(=O)c5ccccc5)ccc4o3)cc2)cc1)C(=O)O [Example 10, 4′-[(5-Benzenesulfonylamino-benzofuran-2-carbonyl)-amino]-biphenyl-4-sulfonyl-L-valine] | – | 3.4 | 19 |
| COc1cccc2oc(C(=O)Nc3ccc(-c4ccc(S(=O)(=O)N[C@H](C(=O)O)C(C)C)cc4)cc3)cc12 [Example 11, N-[(4′-{[(4-methoxy-1-benzofuran-2-yl)carbonyl]amino}-1,1′-biphenyl-4-yl)sulfonyl]-L-valine] | – | 2.3 | 16 |
| CC(C)[C@H](NS(=O)(=O)c1ccc(-c2ccc(NC(=O)c3cc4ccccc4s3)cc2)cc1)C(=O)O [Example 12, 4′-[(Benzo[β]thiophene-2-carbonyl)-amino]-biphenyl-4-sulfonyl-L-valine] | – | 6.2 | 149 |
| CC(C)[C@H](NS(=O)(=O)c1ccc(-c2ccc(NC(=O)c3cc4c(OCc5ccccc5)cccc4o3)cc2)cc1)C(=O)O [Example 13, 4′-[(4-Benzyloxy-benzofuran-2-carbonyl)-amino]-biphenyl-4-sulfonyl-L-valine] | – | – | 62 |
| CC(Oc1cccc2oc(C(=O)Nc3ccc(-c4ccc(S(=O)(=O)N[C@H](C(=O)O)C(C)C)cc4)cc3)cc12)C(=O)O (stereo partly drawn) [Example 14, 4′-{[4-(1-Carboxy-ethoxy)-benzofuran-2-carbonyl]-amino}-biphenyl-4-sulfonyl-L-valine] | – | 11 | 916 |
| NC(=O)C[C@H](NS(=O)(=O)c1ccc(-c2ccc(NC(=O)c3cc4ccccc4o3)cc2)cc1)C(=O)O [Example 15, N2-({4′-[(1-Benzofuran-2-ylcarbonyl)animo]-1,1′-biphenyl-4-yl}sulfonyl)-L-Asparagine] | – | 2.5 | 10 |
| O=C(Nc1ccc(-c2ccc(S(=O)(=O)N[C@@H](Cc3cnc[nH]3)C(=O)O)cc2)cc1)c1cc2ccccc2o1 [Example 17, N-({4′-[(1-Benzofuran-2-ylcarbonyl)amino]-1,1′-biphenyl-4-yl}sulfonyl)-L-Histidine] | – | – | 37 |
| CC(C)C[C@H](NS(=O)(=O)c1ccc(-c2ccc(NC(=O)c3cc4ccccc4o3)cc2)cc1)C(=O)O [Example 18, N-({4′-[(1-Benzofuran-2-ylcarbonyl)amino]-1,1′-biphenyl-4-yl}sulfonyl)-L-leucine] | – | 2.2 | 8.4 |
| Cc1c(C(=O)Nc2ccc(-c3ccc(S(=O)(=O)N[C@H](C(=O)O)C(C)C)cc3)cc2)oc2cccc(C#CC3CC3)c12 [Example 23, 2-{4′-[(4-Cyclopropylethynyl-3-methyl-benzofuran-2-carbonyl)-amino]-biphenyl-4-sulfonylamino}-3-methyl-butyric acid] | – | 21 | 3000 |
| Cc1nc(-c2ccc(C(F)(F)F)cc2)sc1C(=O)Nc1ccc(-c2ccc(S(=O)(=O)N[C@H](C(=O)O)C(C)C)cc2)cc1 [Example 66, (S)-3-Methyl-2-(4′-{[4-methyl-2-(4-trifluoromethyl-phenyl)-thiazole-5-carbonyl]-amino}-biphenyl-4-sulfonylamino)-butyric acid] | – | 121 | – |
| CC(C)[C@@H](C(=O)O)N(C)S(=O)(=O)c1ccc(-c2ccc(NC(=O)c3cc4ccccc4o3)cc2)cc1 [Example 78, N-({4′-[(1-Benzofuran-2-ylcarbonyl)amino]-1,1′-biphenyl-4-yl}sulfonyl)-N-methyl-L-valine] | – | 5600 | – |
| CC(C)[C@@H](C(=O)O)N(Cc1cccnc1)S(=O)(=O)c1ccc(-c2ccc(NC(=O)c3cc4ccccc4o3)cc2)cc1 [Example 81, N-({4′-[(1-Benzofuran-2-ylcarbonyl)amino]-1,1′-biphenyl-4-yl}sulfonyl)-N-(pyridin-3-ylmethyl)-L-valine] | – | 323 | – |
| CC(C)[C@H](NS(=O)(=O)c1ccc(-c2ccc(NC(=O)c3oc4cccc5c4c3CN(C)CC5)cc2)cc1)C(=O)O [Example 85, N-[(4′-{[(4-Methyl-3,4,5,6-tetrahydrofuro[4,3,2-ef][3]benzazepin-2-yl)carbonyl]amino}-1,1′-biphenyl-4-yl)sulfonyl]-L-valine] | – | 294 | – |
| C=C(Cl)c1ccc2oc(C(=O)Nc3ccc(-c4ccc(S(=O)(=O)N[C@H](C(=O)O)C(C)C)cc4)cc3)c(C)c2c1OC [Example 122, (S)-2-(4′-{[5-(1-Chloro-vinyl)-4-methoxy-3-methyl-benzofuran-2-carbonyl]-amino}-biphenyl-4-sulfonylamino)-3-methyl-butyric acid] | – | 222 | – |
| COCCCc1cccc2oc(COc3ccc(-c4ccc(S(=O)(=O)N[C@H](C(=O)O)C(C)C)cc4)cc3)c(C)c12 [Example 147, N-[(4′-{[4-(3-methoxypropyl)-3-methyl-1-benzofuran-2-yl]methoxy}-1,1′-biphenyl-4-yl)sulfonyl]-L-valine] | – | 1.9 | – |
| CC(C)[C@H](NS(=O)(=O)c1ccc(-c2ccc(NC(=O)c3csnn3)cc2)cc1)C(=O)O [Example 163, N-({4′-[(1,2,3-thiadiazol-4-ylcarbonyl)amino]-1,1′-biphenyl-4-yl}sulfonyl)-L-valine] | – | – | 2 |
| CC(C)[C@H](NS(=O)(=O)c1ccc(-c2ccc(NS(=O)(=O)c3cccs3)cc2)cc1)C(=O)O [Example 170, (S)-3-Methyl-2-[4′-(thiophene-2-sulfonylamino)-biphenyl-4-sulfonylamino]-butyric acid] | – | 2870 | – |

Second part, led by results:

| IC50 (MMP-13; MMP-13 IC50, recombinant human catalytic domain of MMP-13) [nM] | IC50 (MMP-13; [1]) [nM] | Structure (SMILES) | IC50 (MMP-2) [nM] |
| --- | --- | --- | --- |
| – | 1.3 | CC(=O)Nc1ccc2oc(C(=O)Nc3ccc(-c4ccc(S(=O)(=O)NC(C(=O)O)C(C)C)cc4)cc3)cc2c1 (stereo in doubt) [Example 9, N-{[4′-({[5-(acetylamino)-1-benzofuran-2-yl]carbonyl}amino)-1,1′-biphenyl-4-yl]sulfonyl}-L-valine] | 4 |
| – | 0.3 | CC(C)[C@H](NS(=O)(=O)c1ccc(-c2ccc(NC(=O)c3cc4cc(Cl)ccc4o3)cc2)cc1)C(=O)O [Example 4] | 4.1 |
| – | 1.5 | CC(C)[C@H](NS(=O)(=O)c1ccc(-c2ccc(NC(=O)c3cc4cc(N)ccc4o3)cc2)cc1)C(=O)O [Example 7, N-[(4′-{[(5-amino-1-benzofuran-2-yl)carbonyl]amino}-1,1′-biphenyl-4-yl)sulfonyl]-L-valine] | – |
| – | 9.9 | Cc1cc(-c2cccc3oc(C(=O)Nc4ccc(-c5ccc(S(=O)(=O)N[C@H](C(=O)O)C(C)C)cc5)cc4)c(C)c23)on1 [Example 35, L-3-Methyl-2-(4′-{[3-methyl-4-(3-methyl-isoxazol-5-yl)-benzofuran-2-carbonyl]-amino}-biphenyl-4-sulfonylamino)-butyric acid] | – |
| – | 286 | COc1cc(OC)c2c(C)c(C(=O)Nc3ccc(-c4ccc(S(=O)(=O)N[C@H](C(=O)O)C(C)C)cc4)cc3)oc2c1C [Example 44, L-2-{4′-[(4,6-Dimethoxy-3,7-dimethyl-benzofuran-2-carbonyl)-amino]-biphenyl-4-sulfonylamino}-3-methyl-butyric acid] | – |
| – | 220 | CC(C)[C@H](NS(=O)(=O)c1ccc(-c2ccc(NC(=O)c3oc4ccccc4c3-c3ccccc3)cc2)cc1)C(=O)O [Example 54, L-3-Methyl-2-{4′-[(3-phenyl-benzofuran-2-carbonyl)-amino]-biphenyl-4-sulfonylamino}-butyric acid] | – |
| – | 3.1 | CC(C)[C@H](NS(=O)(=O)c1ccc(-c2ccc(NC(=O)c3cc4ccccc4o3)cn2)cc1)C(=O)O [Example 76, 4-{5-[(Benzofuran-2-carbonyl)-amino]-pyridin-2-yl}-benzenesulfonyl-L-valine] | – |
| – | 1020 | COc1c(C(C)=O)ccc2oc(C(=O)Nc3ccc(-c4ccc(S(=O)(=O)N[C@H](C(=O)O)C(C)C)cc4)cc3)c(C)c12 [Example 121, (S)-2-{4′-[(5-Acetyl-4-methoxy-3-methyl-benzofuran-2-carbonyl)-amino]-biphenyl-4-sulfonylamino}-3-methyl-butyric acid] | – |
